# Data as given in PubChem BioAssay (NCI).
#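 GI50 = concentration required for 50% inhibition of growth. Definition used: TGI = concentration required for complete inhibition of growth.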
# Legend:
# Assay in all cases: inhibition of tumour cell growth, NCI panel, 384-well format
# [1] = tested on: A549 NSCLC
# [2] = tested on: CCRF-CEM leukemia
# [3] = tested on: COLO 205 colon
# [4] = tested on: HL-60(TB) leukemia
# [5] = tested on: HT29 colon
# [6] = tested on: IGROV1 ovarian
# [7] = tested on: MCF7 breast
# [8] = tested on: MDA-MB-468 breast
# [9] = tested on: NCI-H322M lung
# [10] = tested on: OVCAR-8 ovarian
# [11] = tested on: SF-268 CNS
# [12] = tested on: SNB-75 CNS
# [13] = tested on: UACC-257 melanoma
smiles,measurement,setting,value
Cc1cc(Nc2ncc(Cl)c(Nc3ccccc3S(=O)(=O)C(C)C)n2)c(OC(C)C)cc1C1CCNCC1,GI50,[1],1.4 µM
same,TGI,[1],2.73 µM
same,GI50,[2],1.1 µM
same,TGI,[2],2.43 µM
same,GI50,[3],0.663 µM
same,TGI,[3],1.9 µM
same,GI50,[4],0.218 µM
same,TGI,[4],0.49 µM
same,GI50,[5],0.408 µM
same,TGI,[5],1.46 µM
same,GI50,[6],1.27 µM
same,TGI,[6],2.58 µM
same,GI50,[7],0.297 µM
same,TGI,[7],1.3 µM
same,GI50,[8],1.1 µM
same,TGI,[8],2.34 µM
same,GI50,[9],1.32 µM
same,TGI,[9],2.6 µM
same,GI50,[10],1.55 µM
same,TGI,[10],2.9 µM
same,GI50,[11],1.7 µM
same,TGI,[11],3.08 µM
same,GI50,[12],1.86 µM
same,TGI,[12],3.27 µM
same,GI50,[13],0.777 µM
same,TGI,[13],1.53 µM
